Where two headings read alike, the source gives them in different places.
Key:
human lymphocytes [1] = tested on: human lymphocytes
Experimental: Peripheral blood was collected in heparinized vacutainers from healthy male and female volunteers (<40 years of age). Approximate 10 ml of whole blood was dispensed into a Lymphoprep™ tube (Nycomed Pharma AS Diagnostic, Oslo, Norway) containing ˜10 ml of sterile phosphate buffered saline. Following centrifugation for 20 minutes at 2000 rpm, the lymphocyte population was isolated and washed (1X) in PBS. Stock cultures of isolated lymphocytes were established in Williams E medium supplemented with 10% fetal calf serum, 100 U/ml penicillin and 100 ug/ml streptomycin, 2 mM L-glutamine and 1.0% Phytohemmaglutanin-M form (all reagents from Gibco BRL Life Technologies, Inc., Grand Island, N.Y.). The stock cultures were maintained at 37° C. in 5% CO2 atmosphere for about 48 hours. The lymphocytes were treated with 0 to 100 μg/ml of the aneugen, Noscapine, (Sigma Chemicals), a known aneugen, for 24 hours at 37° C.
The Noscapine treated and untreated lymphocytes, were then centrifuged for 6 minutes at 1000 rpm, the supernatant was removed and the lymphocytes were resuspended in 5 ml of Phosphate Buffered Saline (PBS; GIBCO BRL). The lymphocytes were then centrifuged, the supernatant removed, and the cells resuspended in 0.5 ml of PBS. The cell suspension was pipetted thoroughly through a 9-inch Pasteur pipette (Kimble Glass Inc.) to ensure single cell suspension. While vortexing a tube containing −20° C. (70%) ethanol (about 4.5 ml volume), the cell suspension was added drop by drop. The ethanol solution was prepared by adding 30 ml of distilled water to 70 ml of 200 proof ethyl alcohol from Phamco Products. The cells were then stored at −20° C. in the ethanol for at least 24 hours.
The cells that were stored at −20° C. for at least 24 hours were stained with the H3-P antibody and Alexa Fluor as described above for the H3-P+Alexa (GREEN) stained cells. After the incubation of the cells for 30 minutes at 37° C. with the Alexa Fluor, 5 ml of PBS was added to the cells, the cells were centrifuged, the supernatant removed and the cell pellet resuspended in 1.0 ml of PI/RNase A stain (as described above). The cells were stored on ice until analyzed.
Exited instrument set up mode to acquisition mode. Acquisition for DNA analysis was started and 10,000 ungated cells were acquired. […] The FL2 voltage was optimized as needed per sample (i.e., to keep the G1 peak on 200 of FL2-A x-axis) for Aneuploidy and Polyploidy acquisition. 50,000 ungated cells were acquired from each sample. The data was saved in listmode format.
The presence of aneuploid and polyploid cells in the lymphocytes was determined as follows. CellQuest™ Software was opened, and PLOT and OPEN a dialog box from the tool bar for creating a dot plot. FILE was selected and a data file was opened. […] The dot plot was expanded to the width of the paper. A gate was set for the DNA distribution by starting slightly to the left of the cycling population then continuing to the far right region of the dot plot ending the gate at the 2nd Y axis. The extension of this gate to the 2nd Y-axis of the dot plot was to accommodate cells with greater than 4n DNA (see FIG. 1A). PLOT and OPEN a dialog box was chosen from the tool bar for creating a dot plot.
Using the interphase cells as a guide, the first gate was set over the mitotic cell area above the G0G1-S phase areas.

human lymphocytes [2] = assay: Manual microscopic analysis of polyploid cells (polyploid index, Giemsa stained slides); type: cell-based; details: at each concentration of Noscapine; 1000 consecutive mitotic cells scored for 8n mitotic cells
Experimental: Human lymphocytes described above and treated or not with Noscapine as described above were subjected to manual analysis of numerical chromosomal abnormalities for comparison with the number of cells having numerical chromosomal abnormalities (i.e. polyploidy) obtained in Example 1. For manual analysis, samples of cells were centrifuged for 6 minutes at 1000 rpm. The supernatant was removed and the cell pellet was resuspended in 5 ml of 1% pre-warmed (37° C.) sodium citrate. The latter solution was prepared by mixing 1 g of […] (Sigma Chemicals) in 100 ml of distilled water. The cells were immediately centrifuged as described above. The supernatant was removed and the pellet was vigorously re-suspended in 5 ml of 4° C. fixative (3:1 methanol:acetic acid). The cells were then centrifuged as described above and the pellet resuspended in 5 ml of 4° C. fixative (3:1 methanol:acetic acid). The cells were then stored overnight at −20° C. or until slide preparation. The slides were prepared as follows. The cells were centrifuged as described above and the supernatant was then poured off. The pellet was re-suspended in about 2 ml of fresh fixative solution. […] The polyploid index was determined by systematically scoring 1000 consecutive mitotic cells for the frequency of 8n mitotic cells under low magnification (bright field).

[3] = stimulated human lymphocytes treated 24 hours at 37° C., flow cytometry

SMILES: CN[C@H]1CCc2cc(OC)c(OC)c(OC)c2-c2ccc(OC)c(=O)cc21 [Colcemid®, Colcemid]
- percent of hyperdiploid cells (mitotic cells with DNA content >4n but <8n) (human lymphocytes [1]): increased
- percent of hypodiploid cells (mitotic cells with DNA content >2n but <4n) (human lymphocytes [1]): increased
- percent of polyploid cells (mitotic cells with DNA content of 8N) (human lymphocytes [1]): high

SMILES: C=C1[C@@H](C)[C@H]2[C@H](Cc3ccccc3)NC(=O)[C@]23OC(=O)/C=C/[C@H](O)CCC[C@@H](C)C/C=C/[C@H]3[C@@H]1O [Cytochalasin B]
- percent of hyperdiploid cells (mitotic cells with DNA content >4n but <8n) (human lymphocytes [1]; [3]): minimal
- percent of hypodiploid cells (mitotic cells with DNA content >2n but <4n) (human lymphocytes [1]; [3]): high
- percent of polyploid cells (mitotic cells with DNA content of 8N) (human lymphocytes [1]; [3]): high

SMILES: COc1ccc2c(c1OC)C(=O)O[C@@H]2[C@H]1c2c(cc3c(c2OC)OCO3)CCN1C [Noscapine]
- number of polyploid cells counted manually compared with flow cytometric evaluation (human lymphocytes [2]): similar

Reference: patent US20030104461A1, “Methods for detecting cells with numerical chromosomal abnormalities” (priority 2001, published 2003)
